Consider 21 compounds from publication PMC4942610, “Exploration of acetanilide derivatives of 1-(ω-phenoxyalkyl)uracils as novel inhibitors of Hepatitis C Virus replication” (Scientific Reports, 2016).

Values joined by “and” are separate entries in the source; they are usually repeats but may differ in a detail not shown here. Equal values may be shown once. Read-outs that look alike come from different tables or passages of the source.

One may read the IC50 as the concentration at which inhibition is half-maximal. Usually CC50 stands for the concentration giving 50% cytotoxicity.

Data set [1] concerns HCVcc gt 2a strain JFH-1. The data set can be described thus: HCVcc JFH-1 infection of Huh7-J20 reporter cells, second protocol (full life cycle), SEAP dose-response. The class given is cell-based, Hepatitis C Virus. As to conditions: JFH-1 HCVcc gt2a, 3 d post-infection.
Data set [2] relates to Huh7-J20 cells.
Method: (§3) All the drugs were tested starting from the concentration of 30 μM with 3-fold dilutions.
(§4) Huh7, Huh7-J20 and Huh7-J17 cells were tested for viability in the same conditions described for antiviral assays. Cells grown in a 96-well tissue culture plate in the presence of the drugs or DMSO control were incubated with the WST-1 reagent (Roche) for 3 h as per the manufacturer’s protocol. Cell viability was obtained reading absorbance at 450 nm with PHERAstar (BMG Labtech).
Data set [3] can be described thus: Cell viability assay (WST-1). Particulars: human, Huh7-J20 cells. A general note: Tetrazolium dyes change colour on reduction, which living cells bring about.
Method: as §3, §4
Data set [4] relates to gt1b (isolate Con1) subgenomic I389/NS3-3′/LucUbiMeo/ET replicon. The experiment in a line: gt1b sub-genomic replicon dose-response. It is filed as cell-based, Hepatitis C Virus. Particulars: Huh7 cells stably harbouring the Con1 replicon, 72 h, luciferase. (In general: In antiviral work, replicon cells carry a viral genome segment that copies itself.)
For data set [5], the system named is gt3a S52-WT-∆N sub-genomic replicon. The data set can be described thus: gt3a sub-genomic replicon dose-response. The class given is cell-based, Hepatitis C Virus. As to conditions: Huh7.5-SEC14L2 cells electroporated with S52-WT-∆N RNA, 72 h, luciferase.
In a further data set the test system is HCVcc JFH-1DSGCSL. The experiment in a line: Viral RNA quantification after infection with adaptive mutant JFH-1DSGCSL (Protocol 3), RT-qPCR. The class given is cell-based, Hepatitis C Virus. Particulars: 10 μM, Huh7 cells, Protocol 3, 72 h post-infection. As to the method: To further confirm antiviral activity, we tested Z385, Z387, Z400, and Z401 on a cell culture adaptive derivative HCV JFH-1DSGCSL strain that consistently replicates to high titres. Huh7 cells were infected with HCVcc JFH-1DSGCSL in the presence of drugs as per Protocol 3 described above and RNA was collected 72 h post-infection. Total RNA and the viral RNA were quantified as above.
Figure 5 Antiviral activity on cell-culture adaptive mutant JFH-1DSGCSL. Huh7 cells were infected following the third protocol with adaptive mutant virus and incubated for 3 d with drugs at the concentration of 10 μM. Viral RNA levels and relative SEAP activity were measured as previously described.
Huh7 Lunet-CD81 cells and their control Huh7L- H/EF cells were electroporated with 5 μg of JFH-1 RNA, seeded with drugs in a 12-well tissue culture dish and incubated for 3 d. Cellular RNA was isolated using TRI Reagent (Sigma) following manufacturer’s protocol. RNA quantification from the released viral particles was performed as below following digestion of infected cell medium with RNAse A for 2 h and RNA extraction using the RNeasy kit (Qiagen). HCV RNA quantification was carried out by RT-qPCR using TaqMan probes as reported. Briefly, 250 ng of total RNA were reverse transcribed to obtain cDNA in a 20 μl reaction using TaqMan Reverse Transcription Reagents (Life Technologies) with random hexamers, following manufacturer’s protocol. Reverse transcription was performed at 48 °C for 30 min, followed by 5 min at 85 °C. The qPCR was performed with 1.5 μl of cDNA in a 15 μl reaction mixture (TaqMan Fast Universal PCR Master Mix; Life Technologies) with 250 nM of Fw_primer (5′- […]-3′), 250 nm of Rev_primer (5′-[…]-3′) and 250 nM of TaqMan MGB (minor-groove binding) probe labelled with 6-carboxyfluorescin (5′-FAM-[…]-MGB-3′). Samples were placed in an ABI Fast 7500 instrument (Life Technologies) and were amplified using the following parameters: 95 °C for 5 minutes with cycling parameters set to 95 °C for 3 s and 60 °C for 30 s for 40 cycles. Absolute quantification was carried out using linear regression on a standard curve based on pJFH-1 serial dilution.
(Real-time PCR tracks product formation cycle by cycle.)

The test system of data set [6] is HCVcc gt 2a strain JFH-1. The experiment in a line: HCVcc entry model (Protocol 1: drug only during pre-treatment and 3 h infection), SEAP. It is filed as cell-based, Hepatitis C Virus. As to conditions: 10 μM, 1 h pre-treatment + 3 h infection, then 72 h without drug. On the procedure:
(§1) Reagents and conditions: a) K2CO3, DMF, room temperature, 24 h; b) MeI, NaH, DMF, 0 °C, 4 h. (B,C) Antiviral activity on HCVcc and cell viability. […] Then, inoculum was removed and cells re-fed with fresh medium. After 72 h the infected cell medium was collected and inhibitory effect was determined by measuring SEAP activity (top). Cell viability analysis was performed following same conditions with no viral infection (bottom). The values of DMSO-treated cells are expressed as 100% and those of the drug-treated cells as relative to this DMSO control. Error bars indicate standard error of the means for 3 experiments. (C) Huh7-J20 cells were infected for 3 h with JFH-1 and then treated for 3 d with drugs (10 μM) (post-entry, top) or infected for 3 h in the presence of the drugs, after a pretreatment of 1 h, and then incubated for 3 d maintaining drugs in the medium (full life cycle, centre). SEAP assay was performed on infected cell medium to determine antiviral activity. Data are presented as in (B) above. Cell viability was performed following full life cycle protocol (bottom).
(§2) To assess the effect of compounds on HCV infection, we used three protocols: Protocol 1 where Huh7-J20[23] cells were pre-treated for 1 h and exposed to the cell culture infectious HCV (HCVcc) gt 2a strain JFH-1 in the presence of 10 μM drug or equivalent DMSO (as a vehicle control) for 3 h. […]

In data set [7] the test system is HCVcc gt 2a strain JFH-1. The data set can be described thus: HCVcc post-entry model (Protocol 3: drug added after 3 h infection), SEAP. The class given is cell-based, Hepatitis C Virus. As to conditions: 10 μM, 3 d. As to the method: as §1, §2
Data set [8] has as its system SGR-JFH-luc sub-genomic replicon. It is filed as cell-based, Hepatitis C Virus.
The subject of data set [9] is HCVcc gt 2a strain JFH-1. Set-up: method as in Iro et al.[23]. Particulars: Huh7-J20 reporter cells; ref Iro et al.[23]; cited from earlier work.
The test system of data set [10] is Huh7-J20 cells. Particulars: cited from earlier work.

`O=C(Cn1c(=O)ccn(CCCCOc2ccc(Br)cc2)c1=O)Nc1ccc(Oc2ccccc2)cc1` [Z397]: in the data set on HCVcc gt 2a strain JFH-1 [1], the IC50 was found to be 2.95 µM. The same compound had a 50% cytotoxic concentration (CC50) in the data set with Huh7-J20 cells [2] of 61.1 µM.

In turn, `Cc1cn(CCCCCOc2ccc(Br)cc2)c(=O)n(CC(=O)Nc2ccc(Oc3ccccc3)cc2)c1=O` [Z376] registered a CC50 in the data set on Huh7-J20 cells [2] of 69.2 µM.

`O=C(Cn1c(=O)ccn(CCCCCOc2ccccc2)c1=O)Nc1ccc(Oc2ccccc2)cc1` [Z436] returned a concentration for half-maximal inhibition (IC50) with HCVcc gt 2a strain JFH-1 [1] of 3.62 µM. The half-maximal cytotoxic concentration (CC50) with Huh7-J20 cells [2] came out at 13 µM.

The compound `CN(C(=O)Cn1c(=O)ccn(CCCCCOc2ccc(Br)cc2)c1=O)c1ccc(Oc2ccccc2)cc1` [Z431] had an IC50 in the data set on HCVcc gt 2a strain JFH-1 [1] (Hepatitis C virus, 72 h) of 0.5 µM. The compound also returned a half-maximal cytotoxic concentration (CC50) at 3 d in data set [3] of 2.67 µM.

Regarding `O=C(Cn1c(=O)ccn(CCCCCCOc2ccc(Br)cc2)c1=O)Nc1ccc(Oc2ccccc2)cc1` [Z400], the values for the half-inhibitory concentration (IC50) (with HCVcc gt 2a strain JFH-1 [1]; in data set [4]; in data set [5]) were 0.243 µM, 12.6 µM and 1.1 µM, respectively. The “reduction of total viral RNA levels” value in the data set on HCVcc JFH-1DSGCSL came to 90%. Also, in the data set with Huh7-J20 cells [2], the midpoint of cytotoxicity, the CC50, lay at 66.5 µM.

For the compound `Cc1ccc(Oc2ccc(NC(=O)Cn3c(=O)ccn(CCCCCOc4ccc(Br)cc4)c3=O)cc2)cc1` [Z413], in the data set with HCVcc gt 2a strain JFH-1 [1], the midpoint of inhibition, the IC50, lay at 0.315 µM. Further, in the data set on Huh7-J20 cells [2], half-maximal cytotoxicity (CC50) was put at 27.4 µM.

Compound `O=C(Cn1c(=O)ccn(CCCCCOc2ccc(Br)cc2)c1=O)Nc1ccc(C(=O)c2ccccc2)cc1` [Z430] came in with an IC50 in the data set with HCVcc gt 2a strain JFH-1 [1] of 0.941 µM. The same compound came in with a half-maximal cytotoxic concentration (CC50) in the data set with Huh7-J20 cells [2] of 11.5 µM.

In the data set with HCVcc gt 2a strain JFH-1 [1], `O=C(Cn1c(=O)ccn(CCCCCOc2ccc(Br)cc2)c1=O)Nc1ccc(Oc2ccc(F)cc2)cc1` [Z414] yielded a half-maximal inhibitory concentration (IC50) of 0.627 µM. For the same compound, the 50% cytotoxic concentration (CC50) with Huh7-J20 cells [2] stood at 30.5 µM.

As to `O=C(Cn1c(=O)ccn(CCCCOCc2ccc(Br)cc2)c1=O)Nc1ccc(Oc2ccccc2)cc1` [Z432], in the data set on HCVcc gt 2a strain JFH-1 [1], the IC50 was found to be 1.29 µM. In the data set with Huh7-J20 cells [2], half-maximal cytotoxicity (CC50) was put at 19.2 µM and the “increase in cytotoxicity compared to Z263” value is around 3 fold.

Regarding `O=C(Cn1c(=O)ccn(CCCCCOc2cccc(Br)c2)c1=O)Nc1ccc(Oc2ccccc2)cc1` [Z421], the 50% inhibitory concentration (IC50) with HCVcc gt 2a strain JFH-1 [1] came to 1.16 µM. Also, the CC50 in the data set on Huh7-J20 cells [2] came to 44.6 µM.

In the case of `O=C(Cn1c(=O)ccn(CCCCCCCCOc2ccc(Br)cc2)c1=O)Nc1ccc(Oc2ccccc2)cc1` [Z401], the IC50 in the data set with HCVcc gt 2a strain JFH-1 [1] is 0.092 µM and 0.0924 µM; in data set [4], 2.2 µM; in data set [5], 0.69 µM. Moreover, the “inhibition of virus infection (HCVcc entry) relative to DMSO” value in the data set on HCVcc gt 2a strain JFH-1 [6] is 80%. In addition, the antiviral activity post-entry entry in the data set on HCVcc gt 2a strain JFH-1 [7] is “strongly effective post-entry”. In the data set on HCVcc JFH-1DSGCSL, the “reduction of total viral RNA levels” value was found to be 90%. The “antiviral activity, short treatment, 48 h post transfection” value in data set [8] is on record as 50%. The compound also had a CC50 with Huh7-J20 cells [2] of 22.6 µM.

For the compound `C[C@@]1(O)[C@H](O)[C@@H](CO)O[C@H]1n1cnc2c(N)ncnc21` [2′-C-methyladenosine], the IC50 in the data set on HCVcc gt 2a strain JFH-1 [9] is 2 µM. In the data set with Huh7-J20 cells [10], the CC50 was above 30 µM.

The compound `N#Cc1ccc(OCCCCCn2ccc(=O)n(CC(=O)Nc3ccc(Oc4ccccc4)cc3)c2=O)cc1` [Z434] returned an IC50 in the data set on HCVcc gt 2a strain JFH-1 [1] of 1.85 µM. Moreover, half-maximal cytotoxicity in the data set on Huh7-J20 cells [2] (CC50) was put at 10.5 µM.

With `O=C(Cn1c(=O)ccn(CCCCCOc2ccc(-c3ccccc3)cc2)c1=O)Nc1ccc(Oc2ccccc2)cc1` [Z438], half-maximal inhibition in the data set on HCVcc gt 2a strain JFH-1 [1] (IC50) was put at 1.74 µM. In addition, the cytotoxic concentration (CC50) with Huh7-J20 cells [2] came out at 9.6 µM.

As to `O=C(Cn1c(=O)ccn(CCCCCCc2ccccc2)c1=O)Nc1ccc(Oc2ccccc2)cc1` [Z437], the half-inhibitory concentration (IC50) with HCVcc gt 2a strain JFH-1 [1] came out at 2.93 µM. In the data set on Huh7-J20 cells [2], this compound yielded a CC50 of 14.7 µM.

For the compound `O=C(Cn1c(=O)ccn(CCCCCOc2ccc(Br)cc2)c1=O)Nc1ccc(Cc2ccccc2)cc1` [Z387], the half-maximal inhibitory concentration (IC50) in the data set on HCVcc gt 2a strain JFH-1 [1] was 0.712 µM; in [4] it was 23.3 µM; in data set [5], 0.94 µM. Besides, the “reduction of total viral RNA levels” value with HCVcc JFH-1DSGCSL came out at 90%. In addition, it took 132 µM to reach half-maximal cytotoxicity with Huh7-J20 cells [2] (CC50).

`O=C(Cn1c(=O)ccn(Cc2ccccc2)c1=O)Nc1ccc(Oc2ccccc2)cc1` [Z176] displayed an IC50 in the data set on HCVcc gt 2a strain JFH-1 [1] (Hepatitis C virus, 72 h) of 1.34 µM. Further, in data set [3], it took 17.6 µM to reach half-maximal cytotoxicity (CC50 at 3 d).

`O=C(Cn1c(=O)ccn(CCCCCOc2ccc(Br)cc2)c1=O)Nc1ccc(Oc2ccc(Cl)cc2)cc1` [Z385]: the results for the IC50 (in the data set on HCVcc gt 2a strain JFH-1 [1]; in [4]; in data set [5]) were 0.585 µM, 6.9 µM and 0.66 µM, respectively. For the same compound, the “reduction of total viral RNA levels” value in the data set with HCVcc JFH-1DSGCSL is on record as 90%. This compound registered a CC50 in the data set on Huh7-J20 cells [2] of 59.2 µM.

`O=C(Cn1c(=O)ccn(CCCCCOc2ccc(Br)cc2)c1=O)Nc1ccc(Oc2ccccc2)cc1` [Z263] gave an IC50 with HCVcc gt 2a strain JFH-1 [1] (Hepatitis C virus, 72 h) of 3.1 µM. The same compound registered a CC50 at 3 d in [3] of 56.3 µM.

In turn, `O=C(Cn1c(=O)c(I)cn(CCCCCOc2ccc(Br)cc2)c1=O)Nc1ccc(Oc2ccccc2)cc1` [Z439] registered a half-inhibitory concentration (IC50) in the data set with HCVcc gt 2a strain JFH-1 [1] of 3.72 µM. In addition, the CC50 in the data set on Huh7-J20 cells [2] amounted to 29.7 µM.

On to `O=C(Cn1c(=O)ccn(CCCCCOc2ccc(Br)cc2)c1=O)Nc1ccc(OCc2ccccc2)cc1` [Z377], for which, in the data set on HCVcc gt 2a strain JFH-1 [1], the concentration for half-maximal inhibition (IC50) was 2.98 µM. In the data set with Huh7-J20 cells [2], this compound showed a CC50 of 18.4 µM.
